As usually defined, the IC50 is the concentration that gives 50% inhibition.

In one series the target is T1, αM I domain-GST fusion (Homo sapiens, UniProt P11215).
T1 construct: immobilizing 20 ng/well recombinant αM I domain-GST fusion in 96-well plates
Nature of the series: DDGW-phage binding competition assay. The note with it: dilution series 10 μM to 150 nM; mean of three independent experiments; read-out: IC50 for the inhibition of DDGW-phage binding to the αM I domain. On the procedure: Screening of the compound library. A combinatorial library of 10 000 small molecules was purchased from ChemBridge (San Diego, Calif.). A competition assay with the DDGW peptide bearing phage was set up by immobilizing 20 ng/well recombinant αM I domain-GST fusion in 96-well plates (Michishita et al., 1993). The compounds were used in pools comprising eight compounds, each at a 5 μM concentration and DMSO at a 1.25% concentration. After preincubation of the compounds in the wells, DDGW phage was added (3×10^8 transducing units/well). As controls, soluble DDGW peptide and a control peptide, and an unrelevant phage were included in every plate. Phage binding was detected with an anti-phage antibody as described (Bjorklund et al., 2004). Pools with inhibitory activity were re-tested as single compounds. The DDGW-phage inhibiting activity of these hits at a 10 μM concentration is shown in supplementary data. To calculate the IC50 values for the compounds, dilution series from the DDGW peptide and compounds were made (10 μM to 150 nM) and DDGW phage binding was measured. No inhibitor (DMSO as a vehicle) was used as 100% binding after subtracting the background value obtained with an irrelevant control phage.

Series [1] has as its system THP-1 cells. The experiment in a line: THP-1 transwell migration on fibrinogen. The following applies: 25 μM, 40 nM PDBu. Type of series: cell-based, Human. The procedure:
(§1) Cell adhesion and migration. Cell adhesion was performed as described (Koivunen et al., 2001). Briefly, THP-1 cells (50 000/well) were stimulated with 50 nM PDBu (4β-phorbol-12,13-dibutyrate, SigmaAldrich) and allowed to bind to the fibrinogen coated microtiter wells (10 μg/ml) in the presence or absence of compounds or DMSO in serum-free RPMI medium containing 0.1% BSA. Non-adherent cells were removed by gentle washing with PBS or 2.5 mM EDTA in PBS, and adherent cells were quantitated with a phosphatase assay (Koivunen et al., 2001). Alternatively, THP-1 cells were stimulated with 20 nM PDBu and allowed to adhere on uncoated plastic overnight. Nonadherent cells were removed by washing with PBS followed by six washes with 2.5 mM EDTA in PBS. Cell migration was done using transwells (5 μm pore size) coated with 40 μg/ml LLG-C4-GST or fibrinogen (Koivunen et al., 2001). THP-1 and OCI-AML-3 cells (50 000 cells/100 μl) were allowed to migrate overnight in 10% FBS/RPMI medium in the presence or absence of peptides or compounds and stimulating cell migration with 40 nM PDBu. Gelatinase-selective inhibitor I (InhI) at a 50 μM concentration (Calbiochem) was used to evaluate the level of gelatinase-dependent migration on fibrinogen. Migrated cells were stained with crystal violet and counted (Koivunen et al., 2001). […]

Series [2] relates to THP-1 cells. The experiment in a line: THP-1 adhesion to fibrinogen. The class given is cell-based, Human. On the procedure:
as §1

The target of a further series is αMβ2 integrin (Homo sapiens, UniProt P11215). Nature of the series: Inhibition of antibody binding to purified αMβ2 integrin. The following applies: 25 μM; epitope in β2 I-like domain. On the procedure:
(§2) Inhibition of antibody binding to the integrins. The αM I domain or purified αMβ2 integrin (50 ng/well) were coated on microtiter wells followed by saturation of the wells with 1% BSA in PBS/0.05% Tween20. The DDGW peptide or the compounds at concentrations indicated were preincubated for 30 minutes with the integrin, followed by addition of the antibodies LM2/1, MEM170, OKM-10, IB4 or a control IgG at a 1 μg/ml final concentration. The antibodies LM2/1 and MEM170 recognize the αM integrin I domain, whereas the epitope for OKM-10 is located outside the αM I domain (Koivunen et al., 2001; Li et al., 1995; Stefanidakis et al., 2003). The antibodies were incubated for 45 minutes followed by detection of the bound antibodies with a peroxidase conjugated anti-mouse antibody.

The target in a further series is T2, αM I domain (Homo sapiens, UniProt P11215).
T2 construct: immobilizing 20 ng/well recombinant αM I domain-GST fusion in 96-well plates
Nature of the series: Inhibition of antibody binding to immobilized αM I domain-GST fusion. The note with it: for inhibition at 50 µM: read-out: inhibition of mAb LM2/1 binding. The procedure:
as §2

Series [3] has as its system THP-1 monocytic leukemia cells. Nature of the series: Cell viability/toxicity, THP-1. The class given is cell-based, Human. The following applies: 48 h, serum-containing medium, 50 μM, data not shown. On the procedure:
(§3) Cell culture. Human monocytic leukemia THP-1, OCI-AML-3 acute myeloid leukemia and human HT1080 fibrosarcoma cells were cultured as described (Koivunen et al., 1999; Koivunen et al., 2001; Stefanidakis et al., 2003). The cell viability was measured using an 3-[4,5-dimethylthiazol-2-yl]-2,5-diphenyl tetrazolium bromide assay as described (Bjorklund et al., 2004).
(§4) We next evaluated the ability of DDGW peptide and the chemicals to compete with antibody binding to immobilized αM I domain-GST fusion. […] The epitope of this antibody is located in the β2 I-like domain (FIG. 4B). […] Before conducting cell-based experiments, we tested possible toxicity of the chemicals. The compounds were incubated with THP-1 monocytic leukemia and OCI-AML-3 acute myeloid leukemia cells for 48 h in serum-containing cell culture medium.

In series [4] the test system is OCI-AML-3 acute myeloid leukemia cells. The experiment in a line: Cell viability/toxicity, OCI-AML-3. The following applies: 48 h, serum-containing medium, 50 μM, data not shown. The class given is cell-based. The procedure:
as §3, §4

Series [5] has as its system THP-1 cells. The experiment in a line: THP-1 adhesion to uncoated plastic. Type of series: cell-based, Human. The following applies: 20 nM PDBu; 25 μM compounds; overnight. On the procedure:
as §1

Series [6] has as its system OCI-AML-3 cells. Nature of the series: OCI-AML-3 transwell migration on fibrinogen. The class given is cell-based. The note with it: 25 μM, 40 nM PDBu. On the procedure: as §1
The next series concerns the target T3, αM I domain / proMMP-9 (Homo sapiens, UniProt P11215).
T3 construct: Soluble αM integrin I domain-GST fusion (2.5 μg/ml) was added; made in house
The experiment in a line: proMMP-9 binding to the αM integrin I domain. The note with it: 10 μM. The procedure: proMMP-9 and fibrinogen binding to the αM integrin I domain. […] The resulting MMP-9 with this mutation is structurally identical to the wild type protein (Rowsell et al., 2002). ProMMP-9-ΔHC-E^402Q, intact proMMP-9 or fibrinogen (100 ng/well) was coated on microtiter wells in TBS followed by saturation of the wells with 1% BSA in PBS/0.05% Tween20. Soluble αM integrin I domain-GST fusion (2.5 μg/ml) was added in the presence or absence of peptides or compounds in 0.1% BSA/TBS/0.05% Tween20/1 mM CaCl2/1 mM MgCl2, and incubated for one hour. In some experiments 10 mM CaCl2 or 10 mM MgCl2 were used instead of 1 mM CaCl2/1 mM MgCl2. Bound GST fusion was detected with anti-GST antibody (1:2000 dilution) and peroxidase-conjugated anti-goat antibody (1:2000 dilution).

For series [7], the system named is OCI-AML-3 cells. Nature of the series: Pericellular gelatinase-dependent uPAR cleavage. The class given is cell-based. The following applies: 20 μM; PDBu stimulated; 48 hours. On the procedure:
Cellular cleavage of the urokinase-plasminogen activator receptor. Pericellular gelatinase-dependent uPAR cleavage was performed as described (Bjorklund et al., 2004). Briefly, OCI-AML-3 cells were stimulated with PDBu or left untreated and cultured for 48 hours in the presence of 20 μM IMB-10, the gelatinase-selective inhibitor (InhI) or vehicle (DMSO). uPAR and the cleaved form of uPAR D2+3 was detected with western blotting using a polyclonal antibody to uPAR (399R, American Diagnostica).

Series [8] deals with THP-1 cells. Nature of the series: THP-1 transwell migration on LLG-C4-GST coating. The class given is cell-based, Human. The procedure: Cell adhesion and migration. Cell adhesion was performed as described (Koivunen et al., 2001). Briefly, THP-1 cells (50 000/well) were stimulated with 50 nM PDBu (4β-phorbol-12,13-dibutyrate, SigmaAldrich) and allowed to bind to the fibrinogen coated microtiter wells (10 μg/ml) in the presence or absence of compounds or DMSO in serum-free RPMI medium containing 0.1% BSA. Non-adherent cells were removed by gentle washing with PBS or 2.5 mM EDTA in PBS, and adherent cells were quantitated with a phosphatase assay (Koivunen et al., 2001). Alternatively, THP-1 cells were stimulated with 20 nM PDBu and allowed to adhere on uncoated plastic overnight. Nonadherent cells were removed by washing with PBS followed by six washes with 2.5 mM EDTA in PBS. Cell migration was done using transwells (5 μm pore size) coated with 40 μg/ml LLG-C4-GST or fibrinogen (Koivunen et al., 2001). THP-1 and OCI-AML-3 cells (50 000 cells/100 μl) were allowed to migrate overnight in 10% FBS/RPMI medium in the presence or absence of peptides or compounds and stimulating cell migration with 40 nM PDBu. Gelatinase-selective inhibitor I (InhI) at a 50 μM concentration (Calbiochem) was used to evaluate the level of gelatinase-dependent migration on fibrinogen. Migrated cells were stained with crystal violet and counted (Koivunen et al., 2001). Migration of HT1080 cells on serum coated transwells was conducted as described (Koivunen et al., 1999).

Series [9] concerns HT1080 fibrosarcoma cells. The experiment in a line: HT1080 migration on serum coated transwells. Type of series: cell-based, human. The procedure: as §1
Series [10] relates to leukocytes emigrated into the peritoneum. Nature of the series: Thioglycollate-induced peritonitis, leukocyte emigration in vivo. Also on record: species or system mice. The following applies: i.v. The procedure:
Neutrophil emigration in vivo. The mouse experiments were approved by the ethical committee for the animal experiments at the University of Helsinki. Inflammation was induced in BALB/cOlaHsd female maintained in the Viikki Laboratory Animal Centre by injecting 1 ml 4% thioglycollate broth in PBS i.p. followed by intravenous injections of chemicals (200 μl at a 20, 5 or 1 μg/ml concentration) or PBS after five minutes. Cells emigrated in the peritoneum after 3 or 24 h were counted using a hemocytometer. Statistical significance between groups in the peritonitis model was calculated with one-way ANOVA and found differences were analyzed by Bonferroni pairwise multiple comparison tests. Results with p<0.01 were deemed significant.

The target of another series is T4, αL I domain (Homo sapiens, UniProt P20701).
T4 sequence (P20701 156-327 limits assumed): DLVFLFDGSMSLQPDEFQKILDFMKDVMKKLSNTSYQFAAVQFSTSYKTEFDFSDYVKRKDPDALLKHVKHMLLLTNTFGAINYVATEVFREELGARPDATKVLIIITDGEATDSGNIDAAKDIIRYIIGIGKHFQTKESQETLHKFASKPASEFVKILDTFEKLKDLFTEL
Nature of the series: Antibody binding to αL I domain.

On to `Cc1ccccc1N1C(=O)/C(=C/C=C/c2ccccc2)SC1=S` [IMB-10, (5Z)-5((E)-3-phenylallylidene)-2-thioxo-3-o-tolylthiazolidin-4-one], for which the IC50 at αM I domain-GST fusion was found to be 400 ± 200 nM. Moreover, the “inhibition of migration on fibrinogen-coated transwells” value in the series on THP-1 cells [1] and in the series on OCI-AML-3 cells [6] was “completely inhibited migration” each time. For the same molecule, the “adhesion to fibrinogen after washings with EDTA” value in the series on THP-1 cells [2] (50 nM PDBu, 25 μM, 2.5 mM EDTA) was “more resistant”. The “cell adhesion in the absence of phorbol ester activation” value with THP-1 cells [2] (no phorbol ester, data not shown) is given as “did not increase cell adhesion”. Moreover, at αMβ2 integrin, the “inhibition of mAb IB4 binding to purified αMβ2” value was “inhibited”. For the same molecule, on αM I domain, the inhibition at 50 µM was determined as 75%. Further, the “toxicity / effect on cell proliferation” value in series [3] and in [4] was “no significant effect” in each case. Further, the “adhesion to plastic after washing with 2.5 mM EDTA” value in the series with THP-1 cells [5] is “resisted detachment and remained adherent”. For the same molecule, the “αM I domain binding to proMMP-9-E402Q-ΔHC” value was “nearly completely antagonized” on αM I domain / proMMP-9 (10 mM Ca2+); “strong binding” on αM I domain / proMMP-9 (10 mM Mg2+); “intermediate” at αM I domain / proMMP-9 (equimolar Ca2+ and Mg2+). In addition, the “inhibition of uPAR cleavage (uPAR D2+3 form)” value in the series on OCI-AML-3 cells [7] is given as “could not be inhibited”. For the same molecule, the “inhibition of cell migration on LLG-C4-GST” value in the series with THP-1 cells [8] (25 μM) is recorded as “potently inhibited cell migration”. Also, the “β2 integrin-independent migration of HT1080 cells” value in series [9] is “no effect”. In addition, the “number of leukocytes emigrated into the peritoneum” value in series [10] (after 24 hours) is listed as “still low”; in series [10] (three hours after induction), “dose-dependent decrease”. In addition, on αL I domain, the “binding of TS1/22 and MEM83 antibodies to αL I domain” value was “similarly affected”.

Regarding `CCN1C(=O)/C(=C\c2ccc(OCCCOc3cc(C)cc(C)c3)c(OC)c2)SC1=S` [IMB-2, (E)-5-(4-(3-(3,5-dimethylphenoxy)propoxy)-3-methoxybenzylidene)-3-ethyl-2-thioxothiazolidin-4-one], the “inhibition of migration on fibrinogen-coated transwells” value in the series with THP-1 cells [1] and in the series with OCI-AML-3 cells [6] was “less active” throughout. Further, the “toxicity / effect on cell proliferation” value in series [3] and in series [4] was “no significant effect” in each case. The “inhibition of cell migration on LLG-C4-GST” value with THP-1 cells [8] (25 μM) is “did not siginificantly inhibit cell migration”; in the series with THP-1 cells [8] (100 μM, not shown), “became inhibitory”.

On to `CC[C@H](C)C(=O)O[C@H]1C[C@@H](C)C=C2C=C[C@H](C)[C@H](CC[C@@H]3C[C@@H](O)CC(=O)O3)[C@H]21` [lovastatin, reference compound], for which the “effect on antibody binding” value at αM I domain (DDGW peptide 100 μM, chemical competitors 50 μM) is given as “only a marginal effect”.

Regarding `O=C1/C(=C/c2ccc(-c3cccc([N+](=O)[O-])c3)o2)SC(=S)N1Cc1ccccc1` [IMB-6, (Z)-3-benzyl-5-((5-(3-nitrophenyl)furan-2-yl)methylene)-2-thioxothiazolidin-4-one], the inhibition at 50 µM on αM I domain was 75%. The “toxicity / effect on cell proliferation” value in series [3] and in series [4] was “toxic” in each case.
